Test results reported in the supplement of paper PMC10307832.

Key:
Experiment in all cases: relative viability (nuclei count vs DMSO), 5 days (fraction); higher = more cells survive
[1] = compound: CC1=CC(=CC=C1)NC2=NC(=CS2)C3=CC=NC=C3 + CS(=O)(=O)CCNCc1ccc(-c2ccc3ncnc(Nc4ccc(OCc5cccc(F)c5)c(Cl)c4)c3c2)o1 [Lapatinib] (partner 2 µM)
How it was run: (§1)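 Lung cancer cell lines were seeded in 1536-well plates and dosed by pin tool the next day, with either a single drug or a fixed anchor-drug dose combined with five library-drug doses (not always all listed) spaced in √10 steps. Five days later, one step fixed the cells and stained their nuclei (final 0.05% Triton X-100, 1% formaldehyde, 1 ug/ml Hoechst), and nuclei were counted on 4× images. Relative viability is the nuclei count in treated wells divided by the count in vehicle wells, and each value is the median of duplicate plates.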

Masitinib + Palbociclib = compound: Cc1ccc(NC(=O)c2ccc(CN3CCN(C)CC3)cc2)cc1Nc1nc(-c2cccnc2)cs1 [Masitinib] + CC(=O)c1c(C)c2cnc(Nc3ccc(N4CCNCC4)cn3)nc2n(C2CCCC2)c1=O [Palbociclib] (partner 0.5 µM)
How it was run: as §1

Masitinib + Luminespib = compound: Cc1ccc(NC(=O)c2ccc(CN3CCN(C)CC3)cc2)cc1Nc1nc(-c2cccnc2)cs1 [Masitinib] + CCNC(=O)c1noc(-c2cc(C(C)C)c(O)cc2O)c1-c1ccc(CN2CCOCC2)cc1 [Luminespib] (partner 0.01 µM)
How it was run: as §1

Masitinib + Phenformin = compound: Cc1ccc(NC(=O)c2ccc(CN3CCN(C)CC3)cc2)cc1Nc1nc(-c2cccnc2)cs1 [Masitinib] + N=C(N)NC(=N)NCCc1ccccc1 [Phenformin] (partner 250 µM)
How it was run: as §1

| Cell Line | relative viability ([1]; first compound 0.08 µM) | relative viability ([1]; first compound 0.253 µM) | relative viability ([1]; first compound 0.8 µM) | relative viability ([1]; first compound 2.53 µM) | relative viability ([1]; first compound 8 µM) | relative viability (Masitinib + Palbociclib; first compound 0.01 µM) | relative viability (Masitinib + Palbociclib; first compound 0.03162 µM) | relative viability (Masitinib + Palbociclib; first compound 0.1 µM) | relative viability (Masitinib + Palbociclib; first compound 0.3162 µM) | relative viability (Masitinib + Palbociclib; first compound 1 µM) | relative viability (Masitinib + Luminespib; first compound 0.01 µM) | relative viability (Masitinib + Luminespib; first compound 0.03162 µM) | relative viability (Masitinib + Luminespib; first compound 0.1 µM) | relative viability (Masitinib + Luminespib; first compound 0.3162 µM) | relative viability (Masitinib + Luminespib; first compound 1 µM) | relative viability (Masitinib + Phenformin; first compound 0.01 µM) | relative viability (Masitinib + Phenformin; first compound 0.03162 µM) | relative viability (Masitinib + Phenformin; first compound 0.1 µM) | relative viability (Masitinib + Phenformin; first compound 0.3162 µM) | relative viability (Masitinib + Phenformin; first compound 1 µM) |
| --- | --- | --- | --- | --- | --- | --- | --- | --- | --- | --- | --- | --- | --- | --- | --- | --- | --- | --- | --- | --- |
| HCC-44 | 0.757 | 0.755 | 0.831 | 0.777 | 0.812 | 0.973 | 0.95 | 0.985 | 0.863 | 0.962 | 1.04 | 1.17 | 1.08 | 1.03 | 1.09 | 0.236 | 0.188 | 0.213 | 0.323 | 0.185 |
| COR-L23 | 0.709 | 0.878 | 0.651 | 1.07 | 0.881 | 0.296 | 0.257 | 0.298 | 0.329 | 0.279 | 0.598 | 0.598 | 0.798 | 0.931 | 0.579 | 0.415 | 0.434 | 0.507 | 0.428 | 0.417 |
| NCI-H1355 | 0.723 | 0.713 | 0.652 | 0.656 | 0.651 | 0.37 | 0.601 | 0.4 | 0.292 | 0.343 | 0.643 | 0.564 | 0.766 | 0.623 | 0.738 | 0.462 | 0.384 | 0.478 | 0.379 | 0.406 |
| NCI-H838 | 0.822 | 0.871 | 0.924 | 0.742 | 0.865 | 0.205 | 0.182 | 0.22 | 0.192 | 0.244 | 0.314 | 0.309 | 0.245 | 0.241 | 0.263 | 0.45 | 0.498 | 0.521 | 0.508 | 0.569 |
| NCI-H2126 | 0.593 | 0.667 | 0.68 | 0.594 | 0.572 | 0.33 | 0.341 | 0.376 | 0.337 | 0.379 | 0.888 | 1 | 0.951 | 0.89 | 0.794 | 0.515 | 0.548 | 0.552 | 0.507 | 0.503 |
| BEN | 0.733 | 0.62 | 0.498 | 0.669 | 0.741 | 0.42 | 0.431 | 0.51 | 0.513 | 0.46 | 0.436 | – | 0.631 | 0.378 | 0.37 | 0.288 | – | 0.268 | 0.272 | 0.253 |
| EKVX | 0.182 | 0.189 | 0.206 | 0.163 | 0.171 | 0.35 | 0.333 | 0.343 | – | 0.295 | – | 0.997 | 0.599 | 0.93 | 0.786 | – | 0.213 | 0.235 | 0.214 | 0.199 |
| ABC-1 | 1.24 | 1.14 | 1.03 | 1.02 | 1.01 | 0.699 | 0.855 | 0.784 | 0.598 | 0.661 | 0.397 | 0.692 | 0.743 | 0.484 | 0.429 | 0.204 | 0.24 | 0.228 | 0.209 | 0.234 |
| NCI-H661 | 0.481 | 0.506 | 0.573 | 0.468 | 0.507 | 0.331 | 0.374 | 0.363 | 0.372 | 0.377 | 0.831 | 0.916 | 0.951 | 0.897 | 0.903 | 0.267 | 0.286 | 0.254 | 0.26 | 0.267 |
| NCI-H1651 | 0.721 | 0.704 | 0.865 | 0.713 | 0.781 | 0.388 | 0.505 | 0.419 | 0.535 | 0.523 | 0.823 | 1.23 | 0.822 | 0.75 | 0.769 | 0.341 | 0.29 | 0.337 | 0.375 | 0.31 |
| NCI-H2087 | 0.823 | 0.788 | 0.846 | 1.11 | 0.829 | 0.211 | 0.221 | 0.234 | 0.198 | 0.237 | 0.158 | 0.166 | 0.153 | 0.202 | 0.181 | 0.347 | 0.393 | 0.534 | 0.5 | 0.393 |
| NCI-H1944 | 0.707 | 0.783 | 0.812 | 0.626 | 0.613 | – | 0.295 | – | 0.312 | 0.307 | – | 0.829 | – | 0.576 | 0.697 | – | 0.196 | – | 0.196 | 0.186 |
| LC-2-ad | 0.953 | 0.86 | 0.948 | 0.853 | 0.788 | 0.494 | 0.474 | 0.544 | 0.47 | 0.503 | 0.918 | 1.18 | 1.04 | 0.916 | 0.929 | 0.517 | 0.573 | 0.622 | 0.627 | 0.557 |
| COR-L 105 | 0.289 | 0.41 | 0.382 | 0.408 | 0.389 | 0.422 | 0.394 | 0.435 | 0.382 | 0.348 | 0.758 | 0.677 | 0.776 | 0.686 | 0.66 | 0.505 | 0.542 | 0.604 | 0.515 | 0.425 |
| NCI-H1437 | 0.772 | 0.626 | 0.684 | 0.479 | 0.545 | 0.25 | 0.32 | 0.248 | 0.302 | 0.305 | 1.15 | 1.19 | 1.16 | 1.18 | 1.14 | 0.249 | 0.297 | 0.25 | 0.294 | 0.329 |
| H3255 | 0.225 | 0.325 | 0.203 | 0.195 | 0.211 | 0.294 | 0.35 | 0.299 | 0.321 | 0.326 | 0.586 | 0.772 | 0.611 | 1.02 | 0.838 | 0.388 | 0.277 | 0.374 | 0.315 | 0.407 |
